In US20250179047A1, “5-[7-(3,4-DIHYDRO-1H-ISOQUINOLINE-2-CARBONYL)-1,2,3,4 TETRAHYDROISOQUINOLIN-6-YL]-1H-PYRROLE-3-CARBOXAMIDE DERIVATIVES, PHARMACEUTICAL COMPOSITIONS CONTAINING THEM AND THEIR USES AS PRO-APOPTOTIC AGENTS” (LES LABORATOIRES SERVIER, priority 2022, published 2025):

Assays:
BCL2 D103Y = BCL2 D103Y (Homo sapiens, UniProt P10415, D103Y); assay: TR-FRET competitive binding assay, BCL2 D103Y; settings: Ki determined from IC50, read-out: TR_FRET EKI_Bcl2 D103Y
Summary of the method: (§1)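 Terbium-labelled N-terminal Halo-fusion BCL2 or BCLXL (E. coli), 0.5 nM, competed against fluorescein-labelled PUMA peptide (2 or 20 nM) for 2 h at 23° C in 50 mM Hepes pH 7.5, 150 mM NaCl, 5% DMSO. TR-FRET 520/495 nm ratio gave IC50 by four-parameter fit; Ki derived from IC50.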

BCLXL WT = BCLXL WT (Homo sapiens (Human), UniProt Q07817); assay: TR-FRET competitive binding assay, BCLXL WT; settings: for Ki: BCLXL WT, Ki determined from IC50, read-out: TR_FRET EKI BclxL; for TR_FRET EKI BCLxL/WT selectivty ratio: ratio Ki BCLxL / Ki BCL2 WT
Summary of the method: as §1

BCL2 G101V [1] = assay: TR-FRET competitive binding assay, BCL2 G101V; set-up: species or system human; settings: ratio Ki BCL2 G101V / Ki BCL2 WT
Summary of the method: as §1

BCL2 G101V [2] = molecular target: BCL2 G101V (Homo sapiens, UniProt P10415, G101V); assay: TR-FRET competitive binding assay, BCL2 G101V; settings: BCL2 G101V; Ki determined from IC50; read-out: TR_FRET EKI_Bcl2 G101V
Summary of the method: as §1

KMS-12-PE Bcl-2 WT = assay: In vitro cytotoxicity CellTiter-Glo 48 h, KMS-12-PE Bcl-2 WT; assay type: cell-based; settings: Homo sapiens, KMS-12-PE, C50 = concentration needed to reach 50% of the cellular viability
Summary of the method: (§2)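 KMS-12-PE myeloma cells lentivirally transduced with Bcl-2 WT or G101V (TagRFP-sorted), exposed to compound 11-point dose-response for 48 h at 37 °C, 5% CO2. Viability read by CellTiter-Glo ATP luminescence; C50 is the concentration giving 50% cellular viability.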

KMS-12-PE Bcl-2 G101V = assay: In vitro cytotoxicity CellTiter-Glo 48 h, KMS-12-PE Bcl-2 G101V; assay type: cell-based; settings: for Ratio (G101V/WT): C50 KMS-12-PE Bcl-2 G101V over C50 KMS-12-PE Bcl-2 WT; for IC50: Homo sapiens, KMS-12-PE, 48 h, CellTiter-Glo, C50 = concentration needed to reach 50% of the cellular viability
Summary of the method: as §2

BCL2 WT = BCL2 WT (Homo sapiens (Human), UniProt P10415); assay: TR-FRET competitive binding assay, BCL2 WT; settings: Ki determined from IC50, read-out: TR_FRET EKI_Bcl2 WT
Summary of the method: as §1

Sequence of BCLXL WT (Q07817 other isoform, or with tags, fused parts or gaps): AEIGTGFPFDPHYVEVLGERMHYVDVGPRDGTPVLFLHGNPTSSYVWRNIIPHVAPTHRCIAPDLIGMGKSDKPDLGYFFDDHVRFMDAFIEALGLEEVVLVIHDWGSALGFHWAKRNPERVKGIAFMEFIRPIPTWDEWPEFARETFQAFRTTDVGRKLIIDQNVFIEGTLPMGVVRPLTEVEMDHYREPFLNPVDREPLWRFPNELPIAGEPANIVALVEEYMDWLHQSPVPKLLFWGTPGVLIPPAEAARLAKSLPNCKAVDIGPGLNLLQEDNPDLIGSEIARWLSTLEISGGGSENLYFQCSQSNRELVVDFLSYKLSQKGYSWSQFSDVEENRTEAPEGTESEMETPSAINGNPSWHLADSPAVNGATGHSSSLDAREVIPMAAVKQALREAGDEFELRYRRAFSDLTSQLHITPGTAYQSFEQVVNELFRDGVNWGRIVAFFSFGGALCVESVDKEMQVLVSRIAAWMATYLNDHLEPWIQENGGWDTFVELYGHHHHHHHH

SMILES	Ki (BCL2 D103Y)	Ki (BCLXL WT)	TR_FRET EKI BCLxL/WT selectivty ratio (BCLXL WT)	TR_FRET EKI G101V/WT selectivty ratio (BCL2 G101V [1])	Ki (BCL2 G101V [2])	IC50 (KMS-12-PE Bcl-2 WT)	Ratio (G101V/WT) (KMS-12-PE Bcl-2 G101V)	IC50 (KMS-12-PE Bcl-2 G101V)	Ki (BCL2 WT)
Cc1c(N(C(=O)c2cc(-c3cc4c(cc3C(=O)N3Cc5ccccc5C[C@H]3CN3CCCCC3)CN(C(=O)Cc3ccc(OC(C)(C)CN5CCOCC5)cc3)CC4)n(C)c2C)c2ccc(O)cc2)cc(C#N)n1C [Example 132, N-(5-cyano-1,2-dimethyl-1H-pyrrol-3-yl)-N-(4-hydroxyphenyl)-1,2-dimethyl-5-{2-[2-(4-{[2-methyl-1-(morpholin-4-yl)propan-2-yl]oxy}phenyl)acetyl]-7-[(3S)-3-[(piperidin-1-yl)methyl]-1,2,3,4-tetrahydroisoquinoline-2-carbonyl]-1,2,3,4-tetrahydroisoquinolin-6-yl}-1H-pyrrole-3-carboxamide]	0.37 nM	12 nM	85.7	20.4	2.9 nM	0.066 µM	7.2727	0.48 µM	0.14 nM
Cc1c(N(C(=O)c2cc(-c3cc4c(cc3C(=O)N3Cc5ccccc5C[C@H]3CN3CCCCC3)CN(C(=O)COc3ccccc3)CC4)n(C)c2C)c2ccc(O)cc2)cc(C#N)n1C [Example 133, N-(5-cyano-1,2-dimethyl-1H-pyrrol-3-yl)-N-(4-hydroxyphenyl)-1,2-dimethyl-5-[2-(2-phenoxyacetyl)-7-[(3S)-3-[(piperidin-1-yl)methyl]-1,2,3,4-tetrahydroisoquinoline-2-carbonyl]-1,2,3,4-tetrahydroisoquinolin-6-yl]-1H-pyrrole-3-carboxamide]	0.38 nM	1.9 nM	29.2	9.4	0.6 nM	0.01 µM	5.59	0.0556 µM	0.07 nM
CCN(CC)C[C@@H]1Cc2ccccc2CN1C(=O)c1cc2c(cc1-c1cc(C(=O)N(c3ccc(O)cc3)c3cc(C#N)n(C)c3C)c(C)n1C)CCN(C(=O)Cc1ccc(OCCN3CCOCC3)cc1F)C2 [Example 137, N-(5-cyano-1,2-dimethyl-1H-pyrrol-3-yl)-5-{7-[(3S)-3-[(diethylamino)methyl]-1,2,3,4-tetrahydroisoquinoline-2-carbonyl]-2-(2-{2-fluoro-4-[2-(morpholin-4-yl)ethoxy]phenyl}acetyl)-1,2,3,4-tetrahydroisoquinolin-6-yl}-N-(4-hydroxyphenyl)-1,2-dimethyl-1H-pyrrole-3-carboxamide]	0.16 nM	1.4 nM	23.7	4.6	0.3 nM	0.0148 µM	3.2905	0.0487 µM	0.06 nM
Cc1c(N(C(=O)c2cc(-c3cc4c(cc3C(=O)N3Cc5ccccc5C[C@H]3CN(C)C(C)C)CN(C(=O)Cc3ccc(OCCN(C)C5CC5)cc3)CC4)n(C)c2C)c2ccc(O)cc2)cc(C#N)n1C [Example 138, N-(5-cyano-1,2-dimethyl-pyrrol-3-yl)-5-[2-[2-[4-[2-[cyclopropyl(methyl)amino]ethoxy]phenyl]acetyl]-7-[(3S)-3-[[isopropyl(methyl)amino]methyl]-3,4-dihydro-1H-isoquinoline-2-carbonyl]-3,4-dihydro-1H-isoquinolin-6-yl]-N-(4-hydroxyphenyl)-1,2-dimethyl-pyrrole-3-carboxamide]	0.24 nM	2.2 nM	27.2	6.2	0.5 nM	0.036 µM	5.4167	0.195 µM	0.08 nM
Cc1c(N(C(=O)c2cc(-c3cc4c(cc3C(=O)N3Cc5ccccc5C[C@H]3CN3CCC[C@H](C)C3)CN(C(=O)Cc3ccc(OCCN(C)C5CC5)cc3)CC4)n(C)c2C)c2ccc(O)cc2)cc(C#N)n1C [Example 139, N-(5-cyano-1,2-dimethyl-pyrrol-3-yl)-5-[2-[2-[4-[2-[cyclopropyl(methyl)amino]ethoxy]phenyl]acetyl]-7-[(3S)-3-[[(3S)-3-methyl-1-piperidyl]methyl]-3,4-dihydro-1H-isoquinoline-2-carbonyl]-3,4-dihydro-1H-isoquinolin-6-yl]-N-(4-hydroxyphenyl)-1,2-dimethyl-pyrrole-3-carboxamide]	0.51 nM	5.7 nM	47.5	8.3	1 nM	0.021 µM	5.4762	0.115 µM	0.12 nM
Cc1c(N(C(=O)c2cc(-c3cc4c(cc3C(=O)N3Cc5ccccc5C[C@H]3CN3CCC(C)CC3)CN(C(=O)Cc3ccc(OCCN5CCOCC5)cc3F)CC4)n(C)c2C)c2ccc(O)cc2)cc(C#N)n1C [Example 140]	0.17 nM	2.8 nM	35.9	5.1	0.4 nM	0.0055 µM	6.2044	0.034 µM	0.08 nM
Cc1c(N(C(=O)c2cc(-c3cc4c(cc3C(=O)N3Cc5ccccc5C[C@H]3C)CN(C(=O)Cc3ccc(OCCN5CCOCC5)cc3)CC4)n(C)c2C)c2ccc(O)cc2)cnn1C1CCOCC1 [Example 142, N-(4-hydroxyphenyl)-1,2-dimethyl-N-[5-methyl-1-(oxan-4-yl)pyrazol-4-yl]-5-(7-{[(3R)-3-methyl-3,4-dihydro-1H-isoquinolin-2-yl]carbonyl}-2-(2-{4-[2-(morpholin-4-yl)ethoxy]phenyl}acetyl)-3,4-dihydro-1H-isoquinolin-6-yl)pyrrole-3-carboxamide]	0.31 nM	8.1 nM	62.3	10.0	1.3 nM	0.156 µM	8.9744	1.4 µM	0.13 nM
COCCn1cc(N(C(=O)c2cc(-c3cc4c(cc3C(=O)N3Cc5ccccc5C[C@H]3C)CN(C(=O)Cc3ccc(OCCN5CCOCC5)cc3)CC4)n(C)c2C)c2ccc(O)cc2)cn1 [Example 143, N-(4-hydroxyphenyl)-N-[1-(2-methoxyethyl)pyrazol-4-yl]-1,2-dimethyl-5-(7-{[(3R)-3-methyl-3,4-dihydro-1H-isoquinolin-2-yl]carbonyl}-2-(2-{4-[2-(morpholin-4-yl)ethoxy]phenyl}acetyl)-3,4-dihydro-1H-isoquinolin-6-yl)pyrrole-3-carboxamide]	0.1 nM	3 nM	83.3	12.2	0.4 nM	0.048 µM	12.604	0.605 µM	0.04 nM
Cc1c(C(=O)N(c2ccc(O)cc2)c2cnn(CC(C)C)c2)cc(-c2cc3c(cc2C(=O)N2Cc4ccccc4C[C@H]2C)CN(C(=O)Cc2ccc(OCCN4CCOCC4)cc2)CC3)n1C [Example 144, N-(4-hydroxyphenyl)-1,2-dimethyl-5-(7-{[(3R)-3-methyl-3,4-dihydro-1H-isoquinolin-2-yl]carbonyl}-2-(2-{4-[2-(morpholin-4-yl)ethoxy]phenyl}acetyl)-3,4-dihydro-1H-isoquinolin-6-yl)-N-[1-(2-methylpropyl)pyrazol-4-yl]pyrrole-3-carboxamide]	0.18 nM	7.7 nM	77.0	11.0	1.1 nM	0.0245 µM	12.531	0.307 µM	0.1 nM
Cc1c(C(=O)N(c2ccc(O)cc2)c2cnn3c2CCCC3)cc(-c2cc3c(cc2C(=O)N2Cc4ccccc4C[C@H]2C)CN(C(=O)Cc2ccc(OCCN4CCOCC4)cc2)CC3)n1C [Example 147, N-(4-hydroxyphenyl)-1,2-dimethyl-5-(7-{[(3R)-3-methyl-3,4-dihydro-1H-isoquinolin-2-yl]carbonyl}-2-(2-{4-[2-(morpholin-4-yl)ethoxy]phenyl}acetyl)-3,4-dihydro-1H-isoquinolin-6-yl)-N-{4H,5H,6H,7H-pyrazolo[1,5-a]pyridin-3-yl}pyrrole-3-carboxamide]	0.14 nM	1 nM	17.2	5.9	0.3 nM	0.0304 µM	6.9408	0.211 µM	0.06 nM
